Patent publication US20250144067A1, “PERSONALIZED STARVATION THERAPY FOR CANCER” (Faeth Therapeutics, Inc., priority 2021, published 2025)
Counter-ions that a name gives are not always drawn.

Legend:
[1] = test system: NCI-H292 lung cancer cells; test: FDA drug screening, complete media vs cholesterol-free media with simvastatin (TABLE 2); format: cell-based, human; conditions: for Cholesterol-free media + simvastatin (0.04 μM) / Complete Media: NCI-H292 cells
[2] = test system: NCI-H292 lung cancer cells; test: FDA drug screening, complete media vs cholesterol-free media without statin (TABLE 1); format: cell-based, human
[3] = FDA drug library screen, cholesterol-free media with simvastatin 0.04 μM
[4] = FDA drug library screen, complete media
[5] = complete media minus cholesterol-free media + simvastatin, >0 enhanced anti-cancer activity, about 0 neutral, <0 antagonist
[6] = Complete minus Cholesterol-free, greater than 0 enhanced anti-cancer activity, about 0 neutral, below 0 antagonist
[7] = NCI-H292 cells, FDA drug library screen, complete media
[8] = drug in cholesterol-free media with simvastatin 0.04 μM
[9] = complete media vs cholesterol-free media + simvastatin (0.04 μM), >0 enhanced anti-cancer activity, about 0 neutral, <0 antagonist
[10] = NCI-H292 cells, FDA drug library screen, cholesterol-free media without statin
[11] = FDA library drug in cholesterol-free media with simvastatin 0.04 μM
[12] = FDA library drug in complete media
[13] = NCI-H292 cells, cholesterol-free media without statin, FDA drug library screen
[14] = NCI-H292 cells, complete media, FDA drug library screen
[15] = complete vs cholesterol-free media, >0 enhanced anti-cancer activity, about 0 neutral, <0 antagonist
[16] = NCI-H292 cells, cholesterol-free media without statin
[17] = complete media vs cholesterol-free media + simvastatin (0.04 μM), […]
[18] = complete vs cholesterol-free media, […]
[19] = Complete minus Cholesterol-free, >0 enhanced anti-cancer activity, about 0 neutral, <0 antagonist

| Structure (SMILES) | Cholesterol-free media + simvastatin (0.04 μM) [1, 3] | Complete Media [1, 4] | Difference [2, 6] | Complete [2, 7] | Difference [1, 9] | Cholesterol-free [2, 10] | Cholesterol-free media + simvastatin (0.04 μM) [1, 11] | Complete Media [1, 12] | Cholesterol-free [2, 13] | Complete [2, 14] | other results |
| --- | --- | --- | --- | --- | --- | --- | --- | --- | --- | --- | --- |
| CN[C@H]1CC[C@@H](c2ccc(Cl)c(Cl)c2)c2ccccc21 [Sertraline (hydrochloride)] | 0.9083 | 1.2 | −0.11 | 0.9984 |  |  |  |  |  |  | Difference [1, 5]: 0.29 |
| CN1CCC2=C(C1)c1ccccc1Cc1ccccc12 [Setiptiline] |  |  | −0.08 | 1.024 | −0.19 | 1.103 |  |  |  |  | Cholesterol-free media + simvastatin (0.04 μM) [1, 8]: 1.048; Complete Media ([1]; drug in complete media): 0.8546 |
| CCCc1nn(C)c2c(=O)[nH]c(-c3cc(S(=O)(=O)N4CCN(C)CC4)ccc3OCC)nc12 [Sildenafil] | 1.23 | 1.131 |  |  | −0.10 |  |  |  |  |  | Difference ([2]; Complete minus Cholesterol-free, greater than 0 enhanced anti-cancer activity, about 0 neutral, below 0 antagonists): −0.63; Cholesterol-free ([2]; NCI-H292 cells in cholesterol-free media without statin): 1.66; Complete ([2]; NCI-H292 cells in complete media): 1.034 |
| COc1cc(C2Oc3cc([C@H]4Oc5cc(O)cc(O)c5C(=O)[C@@H]4O)ccc3OC2CO)ccc1O (some centres unmarked) [Silibinin] |  |  |  |  | −0.42 |  | 2.112 | 1.696 | 0.9386 | 1.219 | Difference [2, 15]: 0.28 |
| C[C@H](Cc1cc2c(c(C(N)=O)c1)N(CCCO)CC2)NCCOc1ccccc1OCC(F)(F)F [Silodosin] | 1.21 | 1.074 |  |  | −0.14 |  |  |  |  |  | Cholesterol-free [2, 16]: 1.295; Complete ([2]; NCI-H292 cells, complete media): 0.8816; Difference ([2]; complete vs cholesterol-free media, greater than 0 enhanced anti-cancer activity, about 0 neutral, below 0 antagonists): −0.41 |
| COc1ccc2c(O[C@@H]3C[C@H]4C(=O)N[C@]5(C(=O)NS(=O)(=O)C6CC6)C[C@H]5/C=C\CCCCN(C)C(=O)[C@@H]4C3)cc(-c3nc(C(C)C)cs3)nc2c1C [Simeprevir] | 0.845 | 0.7552 |  |  | −0.09 |  |  |  | 0.5666 | 0.795 | Difference [2, 15]: 0.23 |
| COC1=C[C@@H]2[C@@H]3Cc4ccc(OC)c(O)c4[C@]2(CCN3C)CC1=O [Sinomenine hydrochloride] |  |  |  |  |  |  |  |  | 1.217 | 1.524 | Cholesterol-free media + simvastatin (0.04 μM) [1, 8]: 1.006; Complete Media ([1]; drug in complete media): 0.7844; Difference [1, 17]: −0.22; Difference [2, 18]: 0.31 |
| CCc1cc(/C(C)=N/OCc2ccc(C3CCCCC3)c(C(F)(F)F)c2)ccc1CN1CC(C(=O)O)C1 [Siponimod] |  |  |  |  | −0.35 |  | 1.121 | 0.7701 | 0.9324 | 0.9251 | Difference [2, 19]: −0.01 |
| N[C@@H]1CN(c2c(F)cc3c(=O)c(C(=O)O)cn([C@@H]4C[C@@H]4F)c3c2Cl)CC12CC2.O [Sitafloxacin (hydrate)] |  |  |  |  |  |  | 1.043 | 0.7235 |  |  | Difference [1, 17]: −0.32; Cholesterol-free [2, 16]: 1.147; Complete ([2]; NCI-H292 cells, complete media): 0.7079; Difference [2, 18]: −0.44 |
| N[C@@H](CC(=O)N1CCn2c(nnc2C(F)(F)F)C1)Cc1cc(F)c(F)cc1F [Sitagliptin] | 1.605 | 1.493 | −0.08 | 0.9145 | −0.11 | 0.9944 |  |  |  |  |  |
| CC(C)(C)C(=O)Oc1ccc(S(=O)(=O)Nc2ccccc2C(=O)NCC(=O)O)cc1 [Sivelestat (sodium tetrahydrate)] |  |  |  |  |  |  |  |  |  |  | Cholesterol-free media + simvastatin (0.04 μM) ([1]; cholesterol-free media with simvastatin 0.04 μM, FDA drug library screen (TABLE 2)): 1.071; Complete Media ([1]; complete media, FDA drug library screen (TABLE 2)): 1.039; Difference ([1]; complete media minus cholesterol-free media + simvastatin (0.04 μM), >0 enhanced anti-cancer activity, about 0 neutral, <0 antagonist): −0.03; Difference [2, 19]: −0.30; Cholesterol-free [2, 16]: 1.29; Complete ([2]; NCI-H292 cells, complete media): 0.9928 |
| CC(C)(C)C(=O)Oc1ccc(S(=O)(=O)Nc2ccccc2C(=O)NCC(=O)O)cc1 [Sivelestat] |  |  | −0.16 | 1.017 |  | 1.175 |  |  |  |  | Cholesterol-free media + simvastatin (0.04 μM) ([1]; cholesterol-free media with simvastatin 0.04 μM, cell growth value in FDA drug screen): 0.7952; Complete Media ([1]; complete media, cell growth value in FDA drug screen): 0.866; Difference [1, 5]: 0.07 |
| Nc1ccc(C(=O)[O-])c(O)c1.O.O.[Na+] [Sodium 4-aminosalicylate (dihydrate)] |  |  |  | 0.9477 |  | 1.093 | 1.473 | 1.188 |  |  | Difference [1, 17]: −0.29; Difference ([2]; Complete minus Cholesterol-free, […]): −0.15 |
